In patent US20250032511A1, “[…] USE IN TREATMENT OF SUPER […] EPILEPTICUS” (MARINUS PHARMACEUTICALS, INC., priority 2023, published 2025):

Columns and labels:
[1] = tested on: super refractory status epilepticus; assay: Case report: intravenous ganaxolone in a patient with super refractory status epilepticus (EEG, mental status); type: in vivo, human
SRSE = SRSE patients; anesthesia weaned until seizures started, then higher IV doses; cited from earlier work
[2] = in contrast to allopregnanolone; cited from earlier work

CC(=O)[C@H]1CC[C@H]2[C@@H]3CC[C@H]4C[C@](C)(O)CC[C@]4(C)[C@H]3CC[C@]12C [Ganaxolone, 3α-hydroxy-3β-methyl-5α-pregnan-20-one]
frequency of remaining generalized periodic discharges (GPDs) on EEG in subsequent days ([1]; before GNX: 2-4 Hz GPDs, same patient and regimen): up to 1 Hz | overall outcome of the case ([1]; late initiation of GNX (hospital day 52)): electrographic and clinical improvement | EEG pattern during GNX infusion ([1]; person, SRSE, IV 20 mg bolus, 60 mg/hr first hour, then 42 mg/hr, total 7 days): marked improvement in the EEG pattern | mental status ([1]; same patient, eye opening, attending, communicating with gestures and facial expressions): returned to their premorbid baseline | clinical outcome of earlier higher-dose regimen (SRSE): showed early success, but seizures returned in some patients when ganaxolone serum levels were reduced | oral bioavailability [2]: orally bioavailable
